# Source: patent US20100278776A1, “PHARMACEUTICAL COMPOSITIONS FOR MODULATING A KINASE CASCADE AND METHODS OF USE THEREOF” (Kinex Pharmaceuticals, LLC, priority 2007, published 2010)
# Where two headings read alike, the source gives them in different places.
# What was measured:
# [1] = tested on: Jurkat cells; experiment: Leukemia cell growth inhibition, Jurkat; type: cell-based; conditions: Homo sapiens; Jurkat (Adult T cell leukemia)
# [2] = tested on: HT29 (human colon cancer) xenograft; experiment: Oral potency in staged HT29 mouse xenografts; conditions: 25 mg/kg bid; at day 5 dose lowered to 15 mg/kg bid
# [3] = tested on: H460 cells; experiment: Dasatinib-resistant cell growth inhibition (MTT), H460; type: cell-based; conditions: Homo sapiens, NCI-H460, 8.0×10^3 cells/well, 1.5% FBS, 78 Hr
# Experimental: The OD570 was measured using microplate reader. Growth inhibition curves and EC50/IC50 were determined using GraphPad Prism 4 statistical software. Data was normalized to represent percent of maximum response.
# [4] = tested on: L3.6pl cell line; experiment: Cell growth inhibition (BrdU assay), L3.6pl; type: cell-based, human
# Text: L3.6pl cells are previously described in Trevino et al. Am J. Pathol.
# [5] = tested on: total phosphotyrosine; experiment: Total phosphotyrosine levels in cells; type: cell-based; conditions: HT29 and c-Src527F/NIH-3T3 cells
# Experimental: (§1) AZ28 serves as a positive comparator to show what a validated Src inhibitor should do in these assays. After treatment with compound, cells were lysed, subjected to PAGE and probed with a battery of antibodies. […] In addition, off-target protein phosphorylation was also investigated. Further, induction of apoptosis was evaluated via Caspase 3 cleavage. Multiple doses of each compound were tested because the trends in response to increasing drug concentration are the most reliable indicator of activity.
# [6] = tested on: FAK Y397; experiment: FAK autophosphorylation in whole cells; type: cell-based; conditions: c-Src527F/NIH3T3 cells
# Experimental: as §1
# FAK Y397 is mainly a FAK autophosphorylation site and only a poor Src transphorylation site. AZ28 is not a potent FAK inhibitor (see isolated enzyme data in Example 8).
# [7] = molecular target: ZAP-70(h) (Homo sapiens, UniProt P43403); experiment: Isolated kinase activity, ZAP-70; type: biochemical; conditions: @ 10 μM
# Sequence of ZAP-70(h) (P43403 whole entry): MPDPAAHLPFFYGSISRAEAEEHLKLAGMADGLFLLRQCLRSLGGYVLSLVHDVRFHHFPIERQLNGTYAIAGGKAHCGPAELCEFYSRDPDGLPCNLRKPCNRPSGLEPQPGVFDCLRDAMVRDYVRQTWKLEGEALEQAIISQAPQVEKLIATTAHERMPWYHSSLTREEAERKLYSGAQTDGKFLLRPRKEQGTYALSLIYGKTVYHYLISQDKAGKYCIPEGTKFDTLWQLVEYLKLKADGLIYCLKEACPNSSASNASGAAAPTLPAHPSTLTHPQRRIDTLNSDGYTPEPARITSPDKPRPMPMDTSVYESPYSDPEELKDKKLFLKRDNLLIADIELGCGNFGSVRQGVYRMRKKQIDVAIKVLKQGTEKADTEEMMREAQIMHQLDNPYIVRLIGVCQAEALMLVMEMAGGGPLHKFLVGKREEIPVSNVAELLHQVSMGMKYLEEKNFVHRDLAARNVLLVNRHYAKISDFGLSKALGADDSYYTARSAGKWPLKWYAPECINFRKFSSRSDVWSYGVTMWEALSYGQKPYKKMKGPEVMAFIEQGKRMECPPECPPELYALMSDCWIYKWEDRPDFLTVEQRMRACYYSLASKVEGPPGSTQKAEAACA
# [8] = molecular target: Pyk2(h) (Homo sapiens, UniProt Q14289); experiment: Isolated kinase activity, Pyk2; type: biochemical; conditions: @ 10 μM
# [9] = tested on: EGFR tyrosine kinase (EGF Y845); experiment: EGFR tyrosine kinase autophosphorylation in whole cells; type: cell-based
# Experimental: as §1
# This site is not a direct Src phosphorylation site.
# [10] = molecular target: IGF-1R(h) (Homo sapiens, UniProt P08069); experiment: Isolated kinase activity, IGF-1R; type: biochemical; conditions: @ 10 μM
# [11] = molecular target: Lck(h) (Homo sapiens, UniProt P06239); experiment: Isolated kinase activity, Lck; type: biochemical; conditions: @ 10 μM
# [12] = molecular target: PDGFRβ(h) (Homo sapiens, UniProt P09619); experiment: Isolated kinase activity, PDGFRβ; type: biochemical; conditions: @ 10 μM
# Sequence of PDGFRβ(h) (P09619 33-1106): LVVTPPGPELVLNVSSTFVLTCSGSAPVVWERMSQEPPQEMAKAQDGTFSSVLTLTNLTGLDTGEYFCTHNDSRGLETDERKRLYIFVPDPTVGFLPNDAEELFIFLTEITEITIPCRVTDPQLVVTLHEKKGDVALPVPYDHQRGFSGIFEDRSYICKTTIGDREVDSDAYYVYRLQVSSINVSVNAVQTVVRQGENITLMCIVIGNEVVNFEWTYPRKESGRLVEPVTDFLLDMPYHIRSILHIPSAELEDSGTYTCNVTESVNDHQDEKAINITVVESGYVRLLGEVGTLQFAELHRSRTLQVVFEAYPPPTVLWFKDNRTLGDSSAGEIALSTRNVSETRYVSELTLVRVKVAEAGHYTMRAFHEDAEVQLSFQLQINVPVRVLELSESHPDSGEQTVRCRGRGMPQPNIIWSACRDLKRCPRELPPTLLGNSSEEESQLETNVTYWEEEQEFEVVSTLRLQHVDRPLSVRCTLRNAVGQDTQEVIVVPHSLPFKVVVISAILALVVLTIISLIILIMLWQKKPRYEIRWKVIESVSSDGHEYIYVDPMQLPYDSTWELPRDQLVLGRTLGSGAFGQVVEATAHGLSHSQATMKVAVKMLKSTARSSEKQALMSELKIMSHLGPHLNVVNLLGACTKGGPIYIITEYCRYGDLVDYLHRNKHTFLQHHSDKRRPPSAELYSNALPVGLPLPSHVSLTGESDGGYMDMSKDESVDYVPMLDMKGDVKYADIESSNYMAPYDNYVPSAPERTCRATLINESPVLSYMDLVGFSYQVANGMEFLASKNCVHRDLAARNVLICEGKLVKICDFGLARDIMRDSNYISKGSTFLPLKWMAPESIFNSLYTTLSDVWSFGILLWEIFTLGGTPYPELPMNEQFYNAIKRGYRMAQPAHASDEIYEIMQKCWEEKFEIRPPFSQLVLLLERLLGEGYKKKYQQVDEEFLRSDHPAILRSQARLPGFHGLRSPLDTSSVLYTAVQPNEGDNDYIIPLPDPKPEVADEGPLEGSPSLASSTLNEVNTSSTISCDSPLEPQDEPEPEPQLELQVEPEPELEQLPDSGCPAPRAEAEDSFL
# [13] = tested on: HT29 cell line; experiment: Cell growth inhibition (BrdU assay), HT29; type: cell-based, human
# Experimental: The HT29 cell line is a NCI standard human colon carcinoma cell line.
# (§2) In the BrdU Assay for cell growth inhibition, quantitation of cell proliferation was based on the measurement of BrdU incorporation during DNA synthesis. The Cell Proliferation ELISA BrdU assay kit (colorimetric) was obtained from Roche Applied Science and performed as per vendor instructions.
# (§3) The growth inhibition (GI) is determined from the formula GI=(T0−Tn×100/T0−CONn) where T0 is the BrdU growth of untreated cells at time “0”, Tn is the BrdU growth of treated cells at day “n” and CONn is the control BrdU growth of control cells at day “n”. The GI50 was extrapolated and the data plotted using XL-Fit 4.0 software.
# (§4) For 96 well culture plate experiments, c-Src 3T3 medium was supplemented with 10 mM HEPES buffer. HT-29 cells were seeded in standard tissue culture 96-well plates and c-Src 3T3 cells were seeded in 96-well plates coated with Poly-D-lysine (BIOCOAT™). To increase CO2 diffusion, c-Src 3T3 96-well plates were incubated with their lids raised by ˜2 mm using sterile rubber caps.
# (§5) Samples were reconstituted in DMSO at 20 mM and intermediate dilutions made using DMEM containing 10% FBS. […] Plates were assayed for BrdU and the data analyzed as above for GI50.
# [14] = molecular target: IR(h) (Homo sapiens, UniProt P06213); experiment: Isolated kinase activity, IR; type: biochemical; conditions: @ 10 μM
# [15] = molecular target: MAPK2(h) (Homo sapiens, UniProt P28482); experiment: Isolated kinase activity, MAPK2; type: biochemical; conditions: @ 10 μM
# Sequence of MAPK2(h) (P28482 whole entry): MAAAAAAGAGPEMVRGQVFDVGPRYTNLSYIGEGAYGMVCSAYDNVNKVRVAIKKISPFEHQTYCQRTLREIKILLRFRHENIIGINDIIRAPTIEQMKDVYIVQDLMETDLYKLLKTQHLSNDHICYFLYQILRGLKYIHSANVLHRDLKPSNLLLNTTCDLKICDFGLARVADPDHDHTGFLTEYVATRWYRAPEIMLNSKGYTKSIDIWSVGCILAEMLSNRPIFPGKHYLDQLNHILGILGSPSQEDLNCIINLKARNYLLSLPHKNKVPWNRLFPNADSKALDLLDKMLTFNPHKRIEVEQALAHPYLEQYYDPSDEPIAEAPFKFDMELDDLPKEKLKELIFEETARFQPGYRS
# [16] = molecular target: T1, Src (Homo sapiens, UniProt P12931, Y530F); experiment: Src kinase activity in whole cells (auto- and transphosphorylation, PAGE/antibodies); type: cell-based
# T1 construct: expressed in transfected cells; host or cells: c-Src527F/NIH-3T3 (mouse fibroblasts transfected with human c-Src Y527F); part of the results come from HT-29 (endogenous human Src)
# Experimental: as §1
# [17] = molecular target: FGFR2(h) (Homo sapiens, UniProt P21802); experiment: Isolated kinase activity, FGFR2; type: biochemical; conditions: @ 10 μM
# Sequence of FGFR2(h) (P21802 22-821): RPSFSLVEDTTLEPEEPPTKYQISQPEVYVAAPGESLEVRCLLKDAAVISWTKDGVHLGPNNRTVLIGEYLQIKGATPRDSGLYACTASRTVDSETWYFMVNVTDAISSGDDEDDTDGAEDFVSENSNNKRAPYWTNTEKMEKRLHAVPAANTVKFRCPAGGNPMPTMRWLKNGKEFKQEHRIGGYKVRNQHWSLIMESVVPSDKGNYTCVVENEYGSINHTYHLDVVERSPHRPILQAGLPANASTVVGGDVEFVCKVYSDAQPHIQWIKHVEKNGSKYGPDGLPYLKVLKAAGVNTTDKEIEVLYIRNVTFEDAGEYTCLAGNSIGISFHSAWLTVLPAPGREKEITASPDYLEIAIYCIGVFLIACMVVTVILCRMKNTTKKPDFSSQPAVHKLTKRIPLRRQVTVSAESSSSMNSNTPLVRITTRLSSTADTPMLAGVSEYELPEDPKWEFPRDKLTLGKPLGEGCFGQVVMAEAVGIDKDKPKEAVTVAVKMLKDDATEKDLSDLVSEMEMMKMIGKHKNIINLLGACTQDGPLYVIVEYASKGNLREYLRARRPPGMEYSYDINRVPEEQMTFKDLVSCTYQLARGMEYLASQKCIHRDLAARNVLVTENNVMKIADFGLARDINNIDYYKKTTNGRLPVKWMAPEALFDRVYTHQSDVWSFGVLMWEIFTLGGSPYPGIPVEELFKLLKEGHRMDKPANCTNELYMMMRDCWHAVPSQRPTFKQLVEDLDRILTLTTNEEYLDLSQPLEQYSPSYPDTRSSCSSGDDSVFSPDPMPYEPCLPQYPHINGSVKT
# [18] = molecular target: Lyn(h) (Homo sapiens, UniProt P07948); experiment: Isolated kinase activity, Lyn; type: biochemical; conditions: @ 10 μM
# Sequence of Lyn(h) (P07948 whole entry): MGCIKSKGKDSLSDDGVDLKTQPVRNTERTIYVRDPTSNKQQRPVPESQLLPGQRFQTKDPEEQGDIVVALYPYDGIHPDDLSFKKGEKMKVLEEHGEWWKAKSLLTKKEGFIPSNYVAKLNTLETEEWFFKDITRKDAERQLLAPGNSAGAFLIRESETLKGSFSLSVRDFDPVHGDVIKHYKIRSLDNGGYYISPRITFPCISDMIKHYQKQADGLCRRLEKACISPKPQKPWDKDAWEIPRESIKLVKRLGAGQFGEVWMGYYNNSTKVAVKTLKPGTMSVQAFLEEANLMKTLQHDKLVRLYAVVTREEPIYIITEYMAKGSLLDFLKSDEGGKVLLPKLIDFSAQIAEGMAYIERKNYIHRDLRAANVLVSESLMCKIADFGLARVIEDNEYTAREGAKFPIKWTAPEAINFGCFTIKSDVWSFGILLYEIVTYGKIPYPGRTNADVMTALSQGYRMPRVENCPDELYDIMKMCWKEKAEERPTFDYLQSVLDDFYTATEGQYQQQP
# [19] = molecular target: Fyn(h) (Homo sapiens, UniProt P06241); experiment: Isolated kinase activity, Fyn; type: biochemical; conditions: @ 10 μM
# Sequence of Fyn(h) (P06241 whole entry): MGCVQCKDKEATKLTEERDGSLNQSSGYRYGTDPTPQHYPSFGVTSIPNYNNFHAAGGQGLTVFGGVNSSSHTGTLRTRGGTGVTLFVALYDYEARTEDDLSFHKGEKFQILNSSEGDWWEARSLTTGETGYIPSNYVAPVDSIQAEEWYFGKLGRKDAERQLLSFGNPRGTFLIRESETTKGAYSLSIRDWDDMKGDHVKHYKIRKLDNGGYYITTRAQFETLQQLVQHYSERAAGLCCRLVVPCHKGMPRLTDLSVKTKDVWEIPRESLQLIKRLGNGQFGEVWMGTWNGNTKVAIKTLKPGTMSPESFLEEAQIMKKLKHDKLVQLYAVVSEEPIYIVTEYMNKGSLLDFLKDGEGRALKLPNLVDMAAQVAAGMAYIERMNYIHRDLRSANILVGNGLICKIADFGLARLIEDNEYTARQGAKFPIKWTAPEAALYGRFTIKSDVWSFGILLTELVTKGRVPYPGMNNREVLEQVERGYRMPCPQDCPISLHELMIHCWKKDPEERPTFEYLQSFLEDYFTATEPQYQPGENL
# [20] = molecular target: EGFR(h) (Homo sapiens, UniProt P00533); experiment: Isolated kinase activity, EGFR; type: biochemical; conditions: @ 10 μM
# [21] = tested on: c-Src527F/NIH3T3 cells; experiment: Cell growth inhibition (BrdU assay), c-Src 3T3; type: cell-based; conditions: Mus musculus
# Experimental: The cells were routinely cultured in DMEM supplemented with Fetal Bovine Serum (2.0% v/V), L-glutamine (2 mM) and Sodium Pyruvate (1 mM).
# as §2, §3, §4, §5
# [22] = molecular target: Abl(h) (Homo sapiens, UniProt P00519); experiment: Isolated kinase activity, Abl; type: biochemical; conditions: @ 10 μM
# [23] = molecular target: PKCα(h) (Homo sapiens, UniProt P17252); experiment: Isolated kinase activity, PKCα; type: biochemical; conditions: @ 10 μM
# [24] = tested on: Caspase-3 cleavage; experiment: Induction of apoptosis via Caspase 3 cleavage; type: cell-based; conditions: HT29 and c-Src527F/NIH-3T3 cells
# Experimental: as §1
# Cleavage of Caspase-3 is a good measure of induction of apoptosis.
# [25] = molecular target: T2, PDGF receptor tyrosine kinase Y572/574 (Mus musculus, UniProt P26618); experiment: PDGF receptor autophosphorylation in whole cells; type: cell-based
# T2 construct: endogenous in cells; host or cells: c-Src527F/NIH-3T3
# Experimental: as §1
# This is thought not to be a direct Src substrate in cells.
# [26] = molecular target: isolated Src (Homo sapiens, UniProt P12931); experiment: Titration against isolated Src; type: biochemical
# [27] = molecular target: isolated FAK (Homo sapiens, UniProt Q05397); experiment: Titration against isolated FAK; type: biochemical
# Sequence of isolated FAK (Q05397 whole entry): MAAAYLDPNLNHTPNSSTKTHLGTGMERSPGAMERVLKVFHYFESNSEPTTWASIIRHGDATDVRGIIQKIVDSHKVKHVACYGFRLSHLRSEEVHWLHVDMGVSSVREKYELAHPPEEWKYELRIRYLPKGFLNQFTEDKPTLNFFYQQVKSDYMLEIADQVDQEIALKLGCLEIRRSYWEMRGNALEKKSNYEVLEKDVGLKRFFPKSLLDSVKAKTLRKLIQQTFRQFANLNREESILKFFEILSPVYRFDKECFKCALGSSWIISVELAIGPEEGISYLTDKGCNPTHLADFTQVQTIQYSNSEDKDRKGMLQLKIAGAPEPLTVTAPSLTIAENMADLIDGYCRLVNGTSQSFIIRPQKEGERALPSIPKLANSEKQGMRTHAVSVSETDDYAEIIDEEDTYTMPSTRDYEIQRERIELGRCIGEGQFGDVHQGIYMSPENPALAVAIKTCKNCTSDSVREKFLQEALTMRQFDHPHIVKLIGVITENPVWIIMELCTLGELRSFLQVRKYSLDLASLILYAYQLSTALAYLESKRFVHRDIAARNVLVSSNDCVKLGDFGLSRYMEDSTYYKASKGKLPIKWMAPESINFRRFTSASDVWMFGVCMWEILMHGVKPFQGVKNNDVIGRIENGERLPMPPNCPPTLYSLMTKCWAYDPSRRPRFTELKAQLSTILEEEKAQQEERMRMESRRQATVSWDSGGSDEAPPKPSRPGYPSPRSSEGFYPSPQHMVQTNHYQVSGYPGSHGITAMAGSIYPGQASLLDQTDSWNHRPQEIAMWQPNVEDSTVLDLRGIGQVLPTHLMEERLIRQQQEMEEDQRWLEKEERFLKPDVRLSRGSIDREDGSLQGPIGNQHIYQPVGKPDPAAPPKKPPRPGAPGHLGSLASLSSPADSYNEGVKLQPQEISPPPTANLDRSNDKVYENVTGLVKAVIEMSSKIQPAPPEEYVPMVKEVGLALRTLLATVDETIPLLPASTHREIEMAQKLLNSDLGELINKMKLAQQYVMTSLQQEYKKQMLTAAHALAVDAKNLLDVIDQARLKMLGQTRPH
# [28] = molecular target: Yes(h) (Homo sapiens, UniProt P07947); experiment: Isolated kinase activity, Yes; type: biochemical; conditions: @ 10 μM
# [29] = tested on: PI3 kinase; experiment: Isolated kinase activity, PI3 kinase; type: biochemical; conditions: @ 10 μM
# [30] = tested on: A549 cells; experiment: Cell growth inhibition (BrdU assay), A549; type: cell-based, human; conditions: A549 (Lung); Drug 1 = Tarceva
# Experimental: (§6) Cell lines being evaluated are: SKOV-2, K562, HT-29, A549, and MDA231. […] Except MDA231, this line is grown at 37° C. and 0% CO2.
# (§7) Except MDA231, this line is grown at 37° C. and 0% CO2. Brdu assay was performed at T=0 and T=72.
# (§8) Growth Inhibition. The BrdU data was used to determine the % growth inhibition for each sample concentration using the formula:
# (§9) where T0=Fluorescence of cells at time 0; T1=Fluorescence of treated cells at x hours; Con=Fluorescence of control cells at x hours. T1 values T0 values were designated as T, cytotoxicity. The GI50 was estimated using XLFit excluding T1 values T0 (cytotoxicity).
# [31] = tested on: SKOV-3 cells; experiment: Cell growth inhibition (BrdU assay), SKOV-3; conditions: SKOV-3 (Ovarian); Drug 1 = taxol
# Experimental: as §6, §7, §8, §9
compound,measurement,setting,value
Cc1nc(Nc2ncc(C(=O)Nc3c(C)cccc3Cl)s2)cc(N2CCN(CCO)CC2)n1 [Dasatinib],GI50,[1],8 nM
same,body weight,[2],weight loss
same,IC50,[3],90 nM
"Nc1ccn([C@@H]2O[C@H](CO)[C@@H](O)C2(F)F)c(=O)n1 [Gemcitabine, gemcitabine]",GI50,"[4]; Homo sapiens, L3.6pl, BrdU, T=72, read-out: GI50, Single",1.76 nM
same,Drug 1:compound (I) GI50 ratio,"[4]; L3.6pl (Pancreas), Drug 1 = Gemcitabine",1/13
COc1cc2c(Nc3c(Cl)ccc4c3OCO4)ncnc2cc1OCCCN1CCCCC1 [KX2-328],total phosphotyrosine levels,[5],reduction in the total phosphotyrosine levels
same,FAK autophosphorylation (Y397),[6],some inhibition
same,percent activity of isolated kinase relative to control (untreated),[7],97%
same,percent activity of isolated kinase relative to control (untreated),[8],43%
same,EGFR tyrosine kinase autophosphorylation,[9],potently inhibits
same,percent activity of isolated kinase relative to control (untreated),[10],110%
same,percent activity of isolated kinase relative to control (untreated),[11],1%
same,percent activity of isolated kinase relative to control (untreated),[12],98%
same,GI50,"[13]; Homo sapiens, HT-29, HT29 (Colon), read-out: GI50",647 nM
same,GI50,"[13]; Homo sapiens, HT-29, HT29, read-out: GI50",794 nM
same,GI50,"[13]; Homo sapiens, HT-29, NCI human colon cancer cell line HT29",794 nM
same,activity at 0.05 µM,"[13]; Homo sapiens, HT-29, 50 nM, read-out: HT-29 Growth, % of Control, Mean, n = 3",73%
same,activity at 0.5 µM,"[13]; Homo sapiens, HT-29, 500 nM, read-out: HT-29 Growth, % of Control, Mean, n = 3",10%
same,activity at 5 µM,"[13]; Homo sapiens, HT-29, 5 uM, read-out: HT-29 Growth, % of Control, Mean, n = 3",< 0%
same,percent activity of isolated kinase relative to control (untreated),[14],125%
same,percent activity of isolated kinase relative to control (untreated),[15],105%
same,phosphorylation of Paxillin Y-31 (Src transphosphorylation substrate),[16]; c-Src527F/NIH-3T3 cells,inhibited Src trans-phosphorylation
same,phosphorylation of FAK Tyr 925 (Src transphosphorylation substrate),[16]; whole cells,inhibited Src trans-phosphorylation
same,phosphorylation of Shc Y239/240 (Src transphosphorylation substrate),[16]; whole cells,inhibited Src trans-phosphorylation
same,percent activity of isolated kinase relative to control (untreated),[17],94%
same,percent activity of isolated kinase relative to control (untreated),[18],0%
same,percent activity of isolated kinase relative to control (untreated),[19],2%
same,percent activity of isolated kinase relative to control (untreated),[20],3%
same,GI50,"[21]; NIH3T3, c-Src 3T3",99 nM
same,GI50,"[21]; NIH3T3, c-Src527F/NIH3T3",87 nM
same,GI50,"[21]; NIH3T3, c-Src/NIH-3T3 engineered cell line",99 nM
same,activity at 0.1 µM,"[21]; NIH3T3, 100 nM, read-out: c-Src 3T3 Growth, % of Control, Mean, n = 3",13%
same,activity at 1 µM,"[21]; NIH3T3, 1.0 uM, read-out: c-Src 3T3 Growth, % of Control, Mean, n = 3",< 0%
same,activity at 10 µM,"[21]; NIH3T3, 10 uM, read-out: c-Src 3T3 Growth, % of Control, Mean, n = 3",< 0%
same,percent activity of isolated kinase relative to control (untreated),[22],1%
same,percent activity of isolated kinase relative to control (untreated),[23],111%
same,induction of apoptosis (Caspase-3 cleavage),[24],not effective in inducing apoptosis
same,PDGF receptor autophosphorylation (Y572/574),[25],dose response reduction
same,IC50,[26],8 nM
same,fold less potent against cell growth than against isolated Src,[26],10-100 ×
same,IC50,[27],> 500 nM
same,fold less potent against isolated FAK (than isolated Src),[27],≥ 100 ×
same,percent activity of isolated kinase relative to control (untreated),[28],1%
same,percent activity of isolated kinase relative to control (untreated),[29],99%
C#Cc1cccc(Nc2ncnc3cc(OCCOC)c(OCCOC)cc23)c1 [Tarceva],Drug 1:compound (I) GI50 ratio,[30],134
O=C1[O][Pt]2([NH][C@@H]3CCCC[C@H]3[NH]2)[O]C1=O [oxaliplatin],Drug 1:compound (I) GI50 ratio,"[13]; HT29 (Colon), Drug 1 = oxaliplatin",59
CC(=O)O[C@H]1C(=O)[C@@]2(C)[C@H]([C@H](OC(=O)c3ccccc3)[C@]3(O)C[C@H](OC(=O)[C@H](O)[C@@H](NC(=O)c4ccccc4)c4ccccc4)C(C)=C1C3(C)C)[C@]1(OC(C)=O)CO[C@@H]1C[C@@H]2O [taxol],Drug 1:compound (I) GI50 ratio,[31],0.40
